Measurements taken from the supplement of paper PMC10307832.

Columns and labels:
Pemetrexed + Phenformin = compound: Nc1nc2[nH]cc(CCc3ccc(C(=O)N[C@@H](CCC(=O)O)C(=O)O)cc3)c2c(=O)[nH]1 [Pemetrexed] + N=C(N)NC(=N)NCCc1ccccc1 [Phenformin] (partner 250 µM); assay: relative viability (nuclei count vs DMSO), 5 days (fraction); higher = more cells survive
How it was run: (§1)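 For relative viability, nuclei counts in treated wells were divided by those in vehicle wells. Lung cancer cell lines had been pin-tool dosed in 1536-well plates the day after seeding and cultured for 5 days, then fixed and stained in one step (final 0.05% Triton X-100, 1% formaldehyde, 1 ug/ml Hoechst) and imaged at 4×. Doses were one drug alone or a fixed anchor-drug dose plus five library-drug doses (not always all listed) in √10 steps, and values are duplicate-plate medians.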

Idelalisib + Palbociclib = compound: CC[C@H](Nc1ncnc2[nH]cnc12)c1nc2cccc(F)c2c(=O)n1-c1ccccc1 [Idelalisib] + CC(=O)c1c(C)c2cnc(Nc3ccc(N4CCNCC4)cn3)nc2n(C2CCCC2)c1=O [Palbociclib] (partner 0.5 µM); assay: as above
How it was run: as §1

Cell Line | relative viability (Pemetrexed + Phenformin; first compound 0.002 µM) | relative viability (Pemetrexed + Phenformin; first compound 0.006325 µM) | relative viability (Pemetrexed + Phenformin; first compound 0.02 µM) | relative viability (Pemetrexed + Phenformin; first compound 0.06325 µM) | relative viability (Pemetrexed + Phenformin; first compound 0.2 µM) | relative viability (Idelalisib + Palbociclib; first compound 0.04 µM) | relative viability (Idelalisib + Palbociclib; first compound 0.1265 µM) | relative viability (Idelalisib + Palbociclib; first compound 0.4 µM) | relative viability (Idelalisib + Palbociclib; first compound 1.265 µM) | relative viability (Idelalisib + Palbociclib; first compound 4 µM)
HOP-62 | 0.567 | 0.675 | 0.659 | 0.716 | 0.611 | 0.441 | 0.468 | 0.411 | 0.468 | 0.328
LC-2-ad | 0.518 | 0.567 | 0.492 | 0.335 | 0.374 | 0.454 | 0.518 | 0.513 | 0.503 | 0.49
SW 900 | 0.759 | 0.578 | 0.763 | 0.548 | 0.477 | 0.493 | 0.543 | 0.397 | 0.531 | 0.407
NCI-H322M | 0.861 | 0.747 | 0.799 | 0.741 | 0.613 | 0.495 | 0.488 | 0.424 | 0.435 | 0.508
SK-LU-1 | 0.497 | 0.497 | 0.626 | 0.547 | 0.534 | 0.424 | 0.408 | 0.504 | 0.375 | 0.348
NCI-H1734 | 0.459 | 0.343 | 0.458 | 0.373 | 0.386 | 0.38 | 0.397 | 0.301 | 0.303 | 0.31
HCC-44 | 0.129 | 0.23 | 0.187 | 0.224 | 0.207 | 1.02 | 0.887 | 0.984 | 1.04 | 0.96
NCI-H2170 | 0.449 | 0.443 | 0.424 | 0.42 | 0.405 | 0.398 | 0.434 | 0.384 | 0.347 | 0.336
NCI-H1395 | 0.4 | 0.472 | 0.521 | 0.411 | 0.447 | 0.636 | 0.615 | 0.595 | 0.564 | 0.453
NCI-H1355 | 0.432 | 0.468 | 0.45 | 0.503 | 0.438 | 0.415 | 0.407 | 0.333 | 0.364 | 0.312
NCI-H1650 | 0.415 | 0.39 | 0.408 | 0.309 | 0.231 | 0.361 | 0.338 | 0.297 | 0.324 | 0.291
NCI-H1666 | 0.577 | 0.55 | 0.625 | 0.551 | 0.537 | 0.615 | 0.6 | 0.645 | 0.689 | 0.645
HCC-78 | 0.446 | 0.694 | 0.599 | 0.361 | 0.255 | 0.443 | 0.446 | 0.411 | 0.466 | 0.352
H3255 | 0.349 | 0.355 | 0.414 | 0.418 | 0.414 | 0.33 | 0.297 | 0.287 | 0.35 | 0.338
NCI-H23 | 0.747 | 0.758 | 0.809 | 0.804 | 0.828 | 0.51 | 0.467 | 0.441 | 0.501 | 0.521
NCI-H1944 |  | 0.229 | 0.207 | 0.189 | 0.189 | 0.36 | 0.315 | 0.297 | 0.292 | 0.283
NCI-H1651 | 0.299 | 0.354 | 0.377 | 0.285 | 0.368 | 0.518 | 0.524 | 0.489 | 0.522 | 0.442

Cell Line | relative viability (Pemetrexed + Phenformin; first compound 0.002 µM) | relative viability (Pemetrexed + Phenformin; first compound 0.006325 µM) | relative viability (Pemetrexed + Phenformin; first compound 0.02 µM) | relative viability (Pemetrexed + Phenformin; first compound 0.06325 µM) | relative viability (Pemetrexed + Phenformin; first compound 0.2 µM) | relative viability (Idelalisib + Palbociclib; first compound 0.04 µM) | relative viability (Idelalisib + Palbociclib; first compound 0.1265 µM) | relative viability (Idelalisib + Palbociclib; first compound 0.4 µM) | relative viability (Idelalisib + Palbociclib; first compound 1.265 µM) | relative viability (Idelalisib + Palbociclib; first compound 4 µM)
COR-L 105 | 0.405 | 0.45 | 0.49 | 0.524 | 0.449 | 0.431 | 0.42 | 0.353 | 0.424 | 0.433
RERF-LC-KJ | 0.435 | 0.439 | 0.43 | 0.411 | 0.349 | 1.12 | 1.06 | 1.02 | 0.965 | 0.759
NCI-H1793 | 0.436 | 0.361 | 0.42 | 0.349 | 0.405 | 0.331 | 0.27 |  | 0.298 | 0.26
CAL-12T | 0.502 | 0.477 | 0.612 | 0.58 | 0.608 | 0.836 | 0.525 | 0.448 | 0.615 | 0.414
NCI-H1993 | 0.445 | 0.455 | 0.493 | 0.532 | 0.489 | 0.642 | 0.743 | 0.49 | 0.523 | 0.491
LXF-289 | 0.497 | 0.504 | 0.525 | 0.52 | 0.479 | 0.592 | 0.667 | 0.601 | 0.687 | 0.627
NCI-H1792 | 0.311 | 0.368 | 0.297 | 0.252 | 0.272 | 0.632 | 0.668 | 0.557 | 0.668 | 0.55
LU99A | 0.784 | 0.93 | 0.848 | 0.779 | 0.786 | 0.41 | 0.424 | 0.357 | 0.429 | 0.39
SW 1573 | 0.401 | 0.348 | 0.447 | 0.353 | 0.388 | 0.436 | 0.376 | 0.346 | 0.372 | 0.255
COR-L23 | 0.394 | 0.431 | 0.47 | 0.26 | 0.173 | 0.314 | 0.299 | 0.239 | 0.315 | 0.281
NCI-H1755 | 0.594 | 0.409 | 0.647 | 0.627 | 0.507 | 0.462 | 0.422 | 0.444 | 0.437 | 0.465
LOU-NH91 | 0.691 | 0.733 | 0.739 | 0.572 | 0.404 | 0.548 | 0.545 | 0.629 | 0.544 | 0.547
A549 | 0.161 | 0.155 | 0.169 | 0.161 | 0.14 |  |  |  |  | 
EMC-BAC-2 | 0.481 | 0.523 | 0.615 | 0.58 | 0.423 | 0.546 | 0.502 | 0.489 | 0.522 | 0.482
ChaGo-K-1 | 0.497 | 0.495 | 0.507 | 0.332 | 0.217 | 0.972 | 0.928 | 0.987 | 0.904 | 0.901
NCI-H2023 | 0.343 | 0.397 | 0.473 | 0.354 | 0.203 | 0.368 | 0.492 | 0.295 | 0.295 | 0.295
